Experimental findings from patent publication US8742156B2 (priority 2010, dated 2014) are described below.

For this assay, the system named is H1N1 virus (A/Vicotria/07159200/07 (Tamiflu-resistant strain)). The format is cell-based, Human influenza H1N1 virus. The conditions noted are these: for effect on viral titers of Tamiflu-resistant (Tami-R) H1N1 virus: FIG. 1, multiplicity of infection of 0.2.

Structures can show the parent of a compound that is named as a salt.

For the molecule `N=C(Nc1ccccc1)SCCCSC(=N)Nc1ccccc1` [Compound 58, Carbamimidothioic acid, phenyl-, 1,3-propanediyl ester, dihydrobromide], the “effect on viral titers of Tamiflu-resistant (Tami-R) H1N1 virus” value is reported as “potent inhibitory effects”. The “viral titer of Tami-R H1N1-infected cells decreased (fold)” value (FIG. 1, multiplicity of infection of 0.2, 48-hour post-infection) was 4 fold.

As for `CCOC(=O)C1=C[C@@H](OC(CC)CC)[C@H](NC(C)=O)[C@@H](N)C1` [Tamiflu, oseltamivir, reference compound], the “effect on viral titers of Tamiflu-resistant (Tami-R) H1N1 virus” value is “minimal effects”. Besides, the “Tami-R H1N1 viral titers decreased (%)” value (10 uM, multiplicity of infection of 0.2, 48-hour post-infection) is 20%.
